The results in this text go back to patent US20260209202A1, “N-METHYL-4-(QUINOLIN-2-YL)PYRIDIN-2-AMINE COMPOUNDS” (Abbvie Inc., priority 2023, published 2026).

SMILES strings stand for the structures.

Data set [1] can be described thus: PET imaging in cynomolgus macaques, baseline and homologous self-block. The format is in vivo. As to conditions: for off-target binding in brain: healthy cynomolgus macaques; for blood brain barrier crossing / brain uptake and clearance: intravenous radiotracer. How it is done: PET imaging procedures in cynomolgus macaques were performed under the guidelines of the Institutional Animal Care and Use Committee. Anesthesia was maintained using isoflurane gas maintained at 1.25-3.0% for the duration of the imaging procedures. Prior to PET imaging, a head computed tomography (CT) was acquired using a Neurologica CereTom® CT system (Neurologica, Danvers, MA, USA) which was used for localization of the animal in the PET system, and later for attenuation correction of the PET data.
The radiotracer was administered as a bolus injection (3 mL over 2 minutes), and data collected in dynamic list mode emission acquisition was initiated using a Siemens Concorde microPET® Focus™ 220 (Siemens USA, Washington DC, USA) for 120 minutes. Arterial blood samples were acquired throughout the PET acquisition to measure radioactivity in whole blood and plasma and to assess the % parent and metabolite(s) for generation of an input function for kinetic modeling analysis. The whole blood arterial samples were acquired, initially rapidly (every 30 seconds) and decreased in frequency towards the end of the PET acquisition to every 30 minutes. Arterial whole blood samples were counted in a well counter (PerkinElmer Wizard® 1470; PerkinElmer, Waltham, MA, USA) for radioactivity concentration. Samples were then centrifuged (3000 RCF for 5 minutes) to allow extraction of plasma which was subsequently counted for radioactivity concentration. To determine the proportion of unchanged radiotracer, selected plasma samples (1, 2, 3, 4, 7, 9, 15, 20, 40, 60, 90, and 120 minutes) were extracted with equal volumes of acetonitrile, then injected onto a Dionex/Thermo Ultimate 3000 radio-HPLC system (ThermoFisher, Waltham, MA, USA) consisting of a Phenomenex® Onyx™ C18 10×100 mm column (Torrance, CA, USA), an Eckert and Ziegler coincidence BGO radiodetector (model B-FC-4100, Eckert and Ziegler, Atlanta, GA, USA) and a mobile phase of (A) 10 mM ammonium acetate and (B) acetonitrile. The conditions for [^18F] Compound (I) are: 0-2.5 min, 95% A at 4 mL/min; 2.5-2.6 min, 95% A to 50% A at 4 mL/min to 3 mL/min; 2.6-10 min, 50% A at 3 mL/min; 10-10.1 min, 50% A to 95% A at 3 mL/min to 4 mL/min; 10.1-13 min, 95% A at 4 mL/min. Retention time for [^18F] Compound (I) was 8.4 min. The conditions for [^18F] Compound (II) are: 0-2.5 min, 95% A at 4 mL/min; 2.5-2.6 min, 95% A to 65% A at 4 mL/min to 3 mL/min; 2.6-10 min, 65% A at 3 mL/min; 10-10.1 min, 65% A to 95% A at 3 mL/min to 4 mL/min; 10.1-13 min, 95% A at 4 mL/min. Retention time for [^18F] Compound (II) was 9.3 min. Arterial sampling data was used to generate the input function for kinetic modeling. Potential off-target specific binding in the brain was evaluated for each lead radiotracer using a pre-dosing paradigm in which PET was performed after administration of a 1 mg/kg homologous dose of the non-radioactive tracer over a 15-minute infusion 20 minutes prior to radiotracer injection.
Upon the completion of PET image acquisition, anesthesia was terminated, primates were monitored until fully alert, then transported to their cages. In addition to PET imaging, each primate underwent separate MRI imaging (GE Discovery™ 3T MR750 MRI scanner and GE Signa™ HDxt 1.5T MRI scanner, GE Healthcare, Chicago, IL, USA) for acquisition of a structural T1w image for purposes of co-registration and transformation to a standard atlas space. The PET data analysis was performed, and images were reconstructed using Siemens MicroPET® Manager and AsiPro (Siemens) software. PET list mode data was binned into sinograms with time frames of 6×30 seconds, 3×1 minutes, 2×2 minutes, 22×5 minutes. Images were reconstructed using filtered back projection using a Hanning filter with a 0.5 cycles/pixel cutoff. Corrections for attenuation (using the acquired CT), scatter, and deadtime correction were applied. Furthermore, the dynamic images were decay-corrected to start of PET acquisition, which coincided with the radiotracer injection. […]

Data set [2] has as its target tau aggregates in globus pallidus and putamen of PSP brains (Homo sapiens, UniProt P10636). Briefly: Homologous (self-) displacement in vitro autoradiography on FF PSP brain sections. The format is binding. As to conditions: 3 nM radioligand displaced by corresponding non-radiolabeled compound, mean of three PSP brains, read-out: sdKD (KD determined by means of self-displacement experiments). The text has this:
Brain Tissue. Flash-frozen (FF) tissue blocks, and, for some cases, the corresponding mirrored, formalin-fixed, paraffin-embedded (FFPE) tissue blocks from the globus pallidus and putamen of normal or Progressive Supranuclear Palsy (PSP) brains were purchased from Tissue Solutions Ltd (TS; Glasgow, UK). Both FF and FFPE tissue blocks were used to assess the distribution pattern of [3H] Compound (I) and [3H] Compound (II) binding to normal and PSP brain samples by means of in vitro autoradiography. Only FF tissue blocks were used to determine the affinity of [^3H] Compound (I) and [^3H] Compound (II) for PSP brain by means of in vitro autoradiography. […] The plates were read using a Phosphoimager Typhoon™ FLA-70001P (GE Healthcare, Chicago, IL USA). […] Quantitative analysis of the in vitro autoradiography results. Quantitative analysis was performed by computer assisted micro-densitometry (MCD; MCID basic, Interfocus, Devon, UK). […] Identification of the areas of interest was determined by reference to the Atlas of the Human Brain (Mai et al., 2015, Elsevier, ISBN:9780128028018). […]

Data set [3] relates to tau aggregates in globus pallidus and putamen of PSP brains. Briefly: In vitro autoradiography of radioligand binding to sections of globus pallidus and putamen from PSP and normal brains. Details: species or system human. From the text:
Brain Tissue. Flash-frozen (FF) tissue blocks, and, for some cases, the corresponding mirrored, formalin-fixed, paraffin-embedded (FFPE) tissue blocks from the globus pallidus and putamen of normal or Progressive Supranuclear Palsy (PSP) brains were purchased from Tissue Solutions Ltd (TS; Glasgow, UK). Both FF and FFPE tissue blocks were used to assess the distribution pattern of [3H] Compound (I) and [3H] Compound (II) binding to normal and PSP brain samples by means of in vitro autoradiography. Only FF tissue blocks were used to determine the affinity of [^3H] Compound (I) and [^3H] Compound (II) for PSP brain by means of in vitro autoradiography. […]
In vitro autoradiography. […] The plates were read using a Phosphoimager Typhoon™ FLA-70001P (GE Healthcare, Chicago, IL USA). […]
Quantitative analysis of the in vitro autoradiography results. Quantitative analysis was performed by computer assisted micro-densitometry (MCD; MCID basic, Interfocus, Devon, UK). […] Identification of the areas of interest was determined by reference to the Atlas of the Human Brain (Mai et al., 2015, Elsevier, ISBN:9780128028018). […]

Usually Kd stands for the free concentration of one partner at which half of the binding sites on the other are occupied at equilibrium, for simple one-to-one binding.

tau aggregates in globus pallidus and putamen of PSP brains (Homo sapiens, UniProt P10636), sequence (P10636 with tags, fused parts or gaps): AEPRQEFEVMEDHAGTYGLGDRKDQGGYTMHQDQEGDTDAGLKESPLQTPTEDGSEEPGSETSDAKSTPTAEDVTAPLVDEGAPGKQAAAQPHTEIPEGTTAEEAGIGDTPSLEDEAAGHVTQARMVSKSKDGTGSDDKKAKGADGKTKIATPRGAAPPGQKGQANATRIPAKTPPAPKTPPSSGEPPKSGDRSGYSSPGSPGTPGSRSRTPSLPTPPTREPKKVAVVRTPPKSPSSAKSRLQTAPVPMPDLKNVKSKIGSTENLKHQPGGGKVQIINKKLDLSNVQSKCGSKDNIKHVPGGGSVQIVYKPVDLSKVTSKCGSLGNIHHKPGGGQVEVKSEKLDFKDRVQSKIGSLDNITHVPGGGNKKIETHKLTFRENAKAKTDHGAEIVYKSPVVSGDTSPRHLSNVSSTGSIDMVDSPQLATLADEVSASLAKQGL

In the case of `CNc1cc(-c2ccc3cc(N4CC(O)(C[18F])C4)ccc3n2)ccn1` [[^18F] Compound (II), 3-[(^18F)fluoromethyl]-1-{2-[2-(methylamino)pyridin-4-yl]quinolin-6-yl}azetidin-3-ol], in data set [1], the “off-target binding in brain” value is given as “did not show significant off-target binding”; the “blood brain barrier crossing” value was “ability to cross the blood brain barrier”; the “brain uptake and clearance” value was “rapid uptake and rapid clearance”.
For the compound `CNc1cc(-c2ccc3cc(OCCOC)cc([18F])c3n2)ccn1` [[^18F] Compound (I), 4-[8-(^18F)fluoro-6-(2-methoxyethoxy)quinolin-2-yl]-N-methylpyridin-2-amine], in data set [1], the “off-target binding in brain” value is “did not show significant off-target binding”; the “blood brain barrier crossing” value was “ability to cross the blood brain barrier”; the “brain uptake and clearance” value is “rapid uptake and rapid clearance”. Besides, in data set [1] (initial brain SUV after injection), the “relative brain uptake among the tracers” value is on record as “highest uptake”.
Consider `CNc1cc(-c2ccc3cc(OCCOC)cc(F)c3n2)ccn1` [[^3H] Compound (I)] [4-[8-fluoro-6-(2-methoxyethoxy)quinolin-2-yl]-N—(^3H3)methylpyridin-2-amine], for which the Kd in data set [2] stood at 12.4 nM.
Regarding `[3H]C([3H])([3H])Nc1cc(-c2ccc3cc(OCCOC)cc(F)c3n2)ccn1` [[^3H] Compound (I)] [4-[8-fluoro-6-(2-methoxyethoxy)quinolin-2-yl]-N—(^3H3)methylpyridin-2-amine], the “amount of radioligand bound to the tissue, PSP brains versus normal brains” value in data set [3] (3 nM radioligand, grey matter of FF globus pallidus and putamen sections) came to 2.1 times. Moreover, the “selectivity for tau aggregates in PSP affected brain tissue as compared to healthy brain tissue” value in data set [3] (globus pallidus and putamen) is recorded as “high degree of selectivity”.
